“And” between values parts separate entries of the source, which are not always exact repeats. Equal values may be shown once. Read-outs that look alike come from different tables or passages of the source.
How the values were obtained:
cathepsin B = conditions: cited from earlier work
[1] = pooled human serum, 37° C.; for Stability Human serum, loss of starting material: 7 days
Experimental: Solutions of the substrates (0.08-0.14 mM in DMSO, and 0.22 mM in MeOH for 2) were diluted 10-20-fold in PBS, acetate buffer (25 mM, pH 5.1), or pooled human serum, and incubation was carried out at 37° C. For the serum studies, equal volumes of MeCN were added and the samples were centrifuged prior to HPLC analysis. The other samples were injected directly into the HPLC.

[2] = biological target: T1, Bovine spleen cathepsin B (Bos taurus, UniProt P07688); assay type: biochemical; conditions: for Products released upon treatment with cathepsin B: HPLC analysis
T1 construct: Bovine spleen cathepsin B (Sigma-Aldrich); purchased Sigma-Aldrich; host or cells: bovine spleen (tissue-derived)
Experimental: Bovine spleen cathepsin B (Sigma-Aldrich), dissolved in phosphate buffered saline (pH 7.2, 1 mg/mL final concentration), was activated as previously described (Bajkowski, A. S.; Frankfater, A. Specific Spectrophotometric Assays for Cathepsin B. Anal. Biochem. 1975, 68, 119-127). […] In the case of the naphthol ether 2, a 5.0 mM solution in MeOH was diluted to a final concentration of 0.22 mM. Periodically, aliquots were taken, quenched with an equal volume of MeCN, centrifuged, and 100 μL injections analyzed by HPLC (4.6 mm×15 cm C18 column) with detection between 210 and 400 nm. […] The gradient elution was 90% to 10% A over 10 min, followed by 5 min at 10% A, and the flow rate was 1.0 mL/min. The disappearance of substrate and the appearances of released alcohol and Cbz-val-cit were recorded. Cathepsin B hydrolysis rates were calculated according to the disappearance of substrate (Table 7).

[3] = Stability studies in PBS pH 7.2 or acetate buffer pH 5.1 at 37° C., HPLC; assay type: physicochemical; conditions: for Stability pH 5.1, loss of starting material: acetate buffer pH 5.1, 37° C.; for Stability pH 5.1, loss of starting material / Stability pH 7.2, loss of starting material: 7 days; for Stability at pH 5.1 (in words): pH 5.1, 37° C.; for Stability at pH 5.1 (in words) / Stability at pH 7.2 (in words): absence of added enzyme; for Stability at pH 7.2 (in words): pH 7.2, 37° C.; for Stability pH 7.2, loss of starting material: phosphate buffered saline pH 7.2, 37° C.
Experimental: The other samples were injected directly into the HPLC.

[4] = tested on: L2987 human lung adenocarcinoma cells; experiment: In vitro cytotoxicity assay, [3H] thymidine incorporation; assay type: cell-based
Experimental: (§1) FIG. 1 is a graph showing the cytotoxic effects on L2987 human lung adenocarcinoma (A and D), WM266/4 (B), and IGR-39 (C) human melanoma cell lines. The cells were exposed to various concentrations of the drugs for 24 h, washed, incubated for a further 48 h, and the cytotoxic activities were quantified through the incorporation of [^3H] thymidine relative to untreated control cells.
(§2) The cell lines (L2987 human lung adenocarcinoma, WM266/4 and IGR-39 human melanomas) were exposed to the agents for 24 h, washed, and viability was determined two days later by measuring the incorporation of ^3H-thymidine compared to the untreated controls.
L2987 human lung adenocarcinoma cells were obtained as previously described (Svensson, H. P.; Vrudhula, V. M.; Emsweiler, J. E.; MacMaster, J. F.; Cosand, W. L.; Senter, P. D.; Wallace, P. M. In Vitro and In Vivo Activities of a Doxorubicin Prodrug in Combination with Monoclonal Antibody β-Lactamase Conjugates. Cancer Res. 1995, 55, 2357-2365). WM266/4 and IGR-39 human melanoma cells were obtained from ATCC (Manassas, Va.) and DSMZ (Braunschweig, Germany), respectively. L2987 and WM266/4 cells were grown in Roswell Park Memorial Institute (RPMI) medium containing 10% fetal bovine serum and 10U/mL penicillin G and 10 μg/mL streptomycin sulfate. Dulbecco's modified Eagle's medium was used in place of RPMI for the IGR-39 cells. The cells (2,500 cells in 0.1 mL medium) were plated into 96-well plates, and after 24 h at 37° C., various concentrations of the drugs in medium (50 μL) were added in triplicate. Incubation was continued for an additional 24 h, the cultures were washed, and fresh medium (0.15 mL) was added. After 48 h at 37° C., [^3H] thymidine (25 μL, 0.5 μCi/well) was added, and the cultures were frozen and harvested 4 h later. Incorporation of label was measured using a β-counter.

[5] = tested on: WM266/4 human melanoma cells; conditions: 24 h exposure, 48 h further, range stated for all three cell lines
Experimental: as §1, §2
(§3) L2987 human lung adenocarcinoma cells were obtained as previously described (Svensson, H. P.; Vrudhula, V. M.; Emsweiler, J. E.; MacMaster, J. F.; Cosand, W. L.; Senter, P. D.; Wallace, P. M. In Vitro and In Vivo Activities of a Doxorubicin Prodrug in Combination with Monoclonal Antibody β-Lactamase Conjugates. Cancer Res. 1995, 55, 2357-2365). WM266/4 and IGR-39 human melanoma cells were obtained from ATCC (Manassas, Va.) and DSMZ (Braunschweig, Germany), respectively. L2987 and WM266/4 cells were grown in Roswell Park Memorial Institute (RPMI) medium containing 10% fetal bovine serum and 10U/mL penicillin G and 10 μg/mL streptomycin sulfate. […] Incorporation of label was measured using a β-counter.

[6] = tested on: IGR-39 human melanoma cells; conditions: 24 h exposure, 48 h further, range stated for all three cell lines
Experimental: as §1, §2, §3

[7] = loss of starting material at 37° C. in pH 5.1 acetate buffer

Compound	Products released upon treatment with cathepsin B [2]	Stability pH 5.1, loss of starting material [3]	Stability at pH 5.1 (in words) [3]	Stability at pH 7.2 (in words) [3]	Stability pH 7.2, loss of starting material [3]	Specific activity of cathepsin B [2, 7]	further results
COc1cccc2c1C(=O)c1c(O)c3c(c(O)c1C2=O)CC(O)(C(=O)CO)CC3OC1CC(NC(=O)OCc2ccc(NC(=O)C(CCCNC(N)=O)NC(=O)C(NC(=O)OCc3ccccc3)C(C)C)cc2)C(O)C(C)O1 (stereo not shown) [Cbz-val-cit-PAB-doxorubicin carbamate]	–	–	–	–	–	–	Release of drug upon treatment with cathepsin B (cathepsin B): released active doxorubicin
CC(C)[C@H](NC(=O)OCc1ccccc1)C(=O)N[C@@H](CCCNC(N)=O)C(=O)Nc1ccc(COc2cccc3ccccc23)cc1 [Compound 2, CBZ-VAL-CIT-PAB-1-O-NAPHTHOL]	the products formed were naphthol and Cbz-val-cit-COOH	0% loss, 7 days	no breakdown	no breakdown	0% loss, 7 days	–	Stability in human serum (in words) [1]: no breakdown; Stability Human serum, loss of starting material [1]: 0% loss, 7 days; Specific activity of cathepsin B ([2]; pH 5.1): 350 nmol/min/mg and 350 nmol/ nmol/min/mg
COc1cc([C@@H]2c3cc4c(cc3[C@@H](O[C@@H]3O[C@@H]5CO[C@@H](C)O[C@H]5[C@H](O)[C@H]3O)[C@H]3COC(=O)[C@H]23)OCO4)cc(OC)c1OCc1ccc(NC(=O)[C@H](CCCNC(N)=O)NC(=O)[C@@H](NC(=O)OCc2ccccc2)C(C)C)cc1 [Compound 6, CBZ-VAL-CIT-PAB-O-ETOPOSIDE]	release of etoposide (VIIIa)	0% loss, 7 days	stable	stable	0% loss, 7 days	160 nmol/ nmol/min/mg	Cytotoxic activity, times etoposide (VIIIa) more active than 6 ([4]; L2987, 24 h exposure, 48 h further, range stated for all three cell lines): 15-22 times; Cytotoxic activity, times etoposide (VIIIa) more active than 6 [5]: 15-22 times; Cytotoxic activity, times etoposide (VIIIa) more active than 6 [6]: 15-22 times
COc1ccc(/C=C\c2cc(OC)c(OC)c(OC)c2)cc1OCc1ccc(NC(=O)[C@H](CCCNC(N)=O)NC(=O)[C@@H](NC(=O)OCc2ccccc2)C(C)C)cc1 [Compound 7, CBZ-VAL-CIT-PAB-3′-O-COMBRETASTATIN A-4]	combretastatin A-4 (VIIIb)	0% loss, 7 days	stable	stable	0% loss, 7 days	61 nmol/ nmol/min/mg	Stability in human serum (in words) [1]: stable; Stability Human serum, loss of starting material [1]: 0% loss, 7 days; Factor less potent than combretastatin A-4 (VIIIb) ([4]; L2987 human lung adenocarcinoma cells (FIG. 1D)): 13
COc1ccc(/C=C\c2cc(OC)c(OC)c(OC)c2)cc1OC(=O)OCc1ccc(NC(=O)[C@H](CCCNC(N)=O)NC(=O)[C@@H](NC(=O)OCc2ccccc2)C(C)C)cc1 [Compound 11, CBZ-VAL-CIT-PAB-OCO-COMBRETASTATIN A-4]	VIIIb	–	–	–	–	32 nmol/ nmol/min/mg	Stability in aqueous environments (in words) ([3]; aqueous environments): unstable; Cytotoxicity compared with combretastatin A-4 (VIIIb), in words ([4]; FIG. 1D): as cytotoxic as combretastatin A-4 (VIIIb)
CBZ-VAL-CIT-PAB-O-(N-AC)-NOR [Compound 5]	no N-acetylnorephedrine was detected	0% loss 7 d	–	–	0% loss 7 d	145 nmol/ nmol/min/mg	–
CBZ-VAL-CIT-PAB-OCO-(1S, 2R)-(N-ACETYL)NOREPHEDRINE [Compound 10]	formation of 4	–	–	–	–	150 nmol/ nmol/min/mg	–

From patent publication US7553816B2, “p-amidobenzylethers in drug delivery agents” (priority 2001, dated 2009)
